The target in data set [1] is T1, full-length beta-Catenin (Uniprot ID P35222) (Homo sapiens, UniProt P35222).
T1 construct: 10 nM full-length beta-Catenin (Uniprot ID P35222)
T1 sequence (P35222 1-781): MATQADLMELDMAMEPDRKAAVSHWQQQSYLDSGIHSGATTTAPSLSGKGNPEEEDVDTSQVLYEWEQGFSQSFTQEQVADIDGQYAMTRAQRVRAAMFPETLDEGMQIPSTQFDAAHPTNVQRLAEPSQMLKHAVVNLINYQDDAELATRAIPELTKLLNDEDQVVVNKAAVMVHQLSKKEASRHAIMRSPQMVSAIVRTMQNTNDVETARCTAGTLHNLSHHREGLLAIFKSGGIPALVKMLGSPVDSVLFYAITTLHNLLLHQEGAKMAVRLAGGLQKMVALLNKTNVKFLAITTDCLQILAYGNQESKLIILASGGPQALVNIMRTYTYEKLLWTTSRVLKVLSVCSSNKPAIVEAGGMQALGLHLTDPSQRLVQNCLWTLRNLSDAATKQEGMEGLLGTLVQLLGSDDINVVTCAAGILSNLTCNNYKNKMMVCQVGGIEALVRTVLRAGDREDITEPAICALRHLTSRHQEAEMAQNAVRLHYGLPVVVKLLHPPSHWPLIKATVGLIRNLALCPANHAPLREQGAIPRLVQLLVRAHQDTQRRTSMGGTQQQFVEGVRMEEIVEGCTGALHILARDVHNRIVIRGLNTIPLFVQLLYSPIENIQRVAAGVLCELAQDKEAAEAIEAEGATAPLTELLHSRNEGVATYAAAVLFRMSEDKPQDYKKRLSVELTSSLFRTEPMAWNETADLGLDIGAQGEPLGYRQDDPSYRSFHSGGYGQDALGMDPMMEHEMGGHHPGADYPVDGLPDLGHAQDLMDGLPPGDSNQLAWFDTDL
Kind of data set: Fluorescence polarization IC50 (beta-catenin / 5FAM-TCF4 10-53 competition). It counts as binding. (In general: In fluorescence polarisation assays a small probe gives low polarisation when free and higher when bound to something large.)

A short description of a further data set: CHI Log D procedure. It counts as physicochemical. Conditions: for chromatographic logD: pH 7.4, CHI Log D.
The next data set in a line: Solubility in PBS. The class given is physicochemical. The gist of the method:
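Read-out is the HPLC peak area of the supernatant from ultracentrifuged PBS solution, scaled against a 50 μM peptide DMSO injection; value reported as [(PBS area)/(DMSO area)]*50 uM.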

For data set [2], the target named is T2, beta-catenin/TCF4 engagement (Homo sapiens, UniProt P35222).
T2 construct: expressed in transfected cells; host or cells: HEK293
T2 sequence (P35222 1-781): T1 sequence (P35222 1-781)
Description: Nano-BRET target engagement assay (B-cat-Halo & TCF4-Luc in HEK293 cells). It counts as cell-based.

Values after ≈ are worked out from the molar mass of the structure shown. Where two headings read alike, the source gives them in different places.

With `CC(=O)N1CCC[C@]12CC=CCCCC1(CCCC=CCCCOC(=O)N3CC[C@@](C(=O)N[C@@H](Cc4ccsc4)C(=O)N[C@@H](Cc4csc5ccccc45)C(=O)N[C@@H](CC(N)=O)C(=O)N[C@@H](C)C(N)=O)(C3)NC(=O)[C@H](CC(N)=O)NC(=O)[C@H](Cc3ccccc3)NC(=O)[C@H](C)NC(=O)[C@H](C)NC(=O)[C@H](CC(=O)O)NC(=O)[C@H](CC(=O)O)NC1=O)NC(=O)[C@H](CC(C)(C)C)NC(=O)[C@H](CC(=O)O)NC2=O` (stereo partly drawn) [I-821, Ac-PL3-Asp-Npg-B5-Asp-Asp-Ala-Ala-Phe-Asn-PyrS2-3Thi-BztA-Asn-Ala-NH2], the IC50 was determined as 5 nM in data set [1] (read-out: beta-Catenin FP IC50) and 9100 nM in data set [2] (read-out: NanoBRET Abs IC50). The chromatographic logD in the data set “CHI Log D procedure” came to 2.07. The Solubility in the data set “Solubility in PBS” (Solubility (uM)) amounted to 36 µM (≈ 71.1 µg/mL).
As for `CC(=O)N1CCC[C@]12CC=CCCCC1(CCCC=CCCCOC(=O)N3CC[C@@](C(=O)N[C@@H](Cc4ccsc4)C(=O)N[C@@H](Cc4csc5ccccc45)C(=O)N[C@@H](Cc4c[nH]cn4)C(=O)N[C@H](C)C(N)=O)(C3)NC(=O)[C@H](CC(N)=O)NC(=O)[C@H](Cc3ccccc3)NC(=O)[C@H](C)NC(=O)[C@H](C)NC(=O)[C@H](CC(=O)O)NC(=O)[C@H](CC(=O)O)NC1=O)NC(=O)[C@H](CC(C)(C)C)NC(=O)[C@H](CC(=O)O)NC2=O` (stereo partly drawn) [I-823, Ac-PL3-Asp-Npg-B5-Asp-Asp-Ala-Ala-Phe-Asn-PyrS2-3Thi-BztA-His-dAla-NH2], the figures for the IC50 in data set [1] (read-out: beta-Catenin FP IC50), in data set [2] (read-out: NanoBRET Abs IC50) and in data set [2] (read-out: NanoBRET IC50) were 5 nM, 18300 nM and > 10000 nM, respectively. For the same compound, in the data set “CHI Log D procedure”, the chromatographic logD stood at 2.09. Moreover, the Solubility in “Solubility in PBS” (Solubility (uM)) is 32 µM (≈ 63.9 µg/mL). The inhibition at 10 µM in data set [2] (HEK293, 10 uM, read-out: NanoBRET % inh @ 10 uM) worked out at 37.5%.
As to `CC(=O)N1CCC[C@]12CC=CCCCC1(CCCC=CCCCOC(=O)N3CC[C@@](C(=O)N[C@@H](Cc4ccsc4)C(=O)N[C@@H](Cc4csc5ccccc45)C(=O)N[C@@H](CC(N)=O)C(=O)N[C@H](C)C(N)=O)(C3)NC(=O)[C@H](CC(N)=O)NC(=O)[C@H](Cc3ccccc3)NC(=O)[C@H](C)NC(=O)[C@H](C)NC(=O)[C@H](CC(=O)O)NC(=O)[C@H](CC(=O)O)NC1=O)NC(=O)[C@H](CC(C)(C)C)NC(=O)[C@H](CC(=O)O)NC2=O` (stereo partly drawn) [I-824, Ac-PL3-Asp-Npg-B5-Asp-Asp-Ala-Ala-Phe-Asn-PyrS2-3Thi-BztA-Asn-dAla-NH2], the IC50 in data set [1] (read-out: beta-Catenin FP IC50) was determined as 7 nM; in data set [2] (read-out: NanoBRET Abs IC50) it was 14700 nM. Moreover, the chromatographic logD in “CHI Log D procedure” was 2.06. This compound came in with a Solubility in the data set “Solubility in PBS” (Solubility (uM)) of 36 µM (≈ 71.1 µg/mL).
Turning to `CC(=O)N1CCC[C@]12CC=CCCCC1(CCCC=CCCCCOC(=O)N3CC[C@@](C(=O)N[C@@H](Cc4ccsc4)C(=O)N[C@@H](Cc4csc5ccccc45)C(=O)N[C@@H](CCC(N)=O)C(=O)N[C@@H](C)C(N)=O)(C3)NC(=O)[C@H](CC(N)=O)NC(=O)[C@H](Cc3ccccc3)NC(=O)[C@H](C)NC(=O)[C@H](C)NC(=O)[C@H](CC(=O)O)NC(=O)[C@H](CC(=O)O)NC1=O)NC(=O)[C@H](CC(C)(C)C)NC(=O)[C@H](CC(=O)O)NC2=O` (stereo partly drawn) [I-826, Ac-PL3-Asp-Npg-B5-Asp-Asp-Ala-Ala-Phe-Asn-PyrS3-3Thi-BztA-Gln-Ala-NH2], the IC50 came to 15 nM in data set [1] (fluorescence polarization, beta-catenin, read-out: FP EC50); 15 nM in data set [1] (read-out: beta-Catenin FP IC50); 22700 nM in data set [2] (read-out: NanoBRET Abs IC50). In addition, the “CHI Log D” value in the data set “CHI Log D procedure” (pH 7.4) is given as 2.066. Moreover, the “Solubility” value in the data set “Solubility in PBS” came to 30 µM (≈ 60.1 µg/mL).
Turning to `CC(=O)N1CCC[C@]12CC=CCCCC1(CCCC=CCCCCOC(=O)N3CC[C@@](C(=O)N[C@@H](Cc4ccsc4)C(=O)N[C@@H](Cc4csc5ccccc45)C(=O)N[C@@H](CC(N)=O)C(=O)N[C@@H](C)C(N)=O)(C3)NC(=O)[C@H](CC(N)=O)NC(=O)[C@H](Cc3ccccc3)NC(=O)[C@H](C)NC(=O)[C@H](C)NC(=O)[C@H](CC(=O)O)NC(=O)[C@H](CC(=O)O)NC1=O)NC(=O)[C@H](CC(C)(C)C)NC(=O)[C@H](CC(=O)O)NC2=O` (stereo partly drawn) [I-829, Ac-PL3-Asp-Npg-B5-Asp-Asp-Ala-Ala-Phe-Asn-PyrS3-3Thi-BztA-Asn-Ala-NH2], the IC50 in data set [1] (read-out: beta-Catenin FP IC50) is 15 nM; in data set [2] (read-out: NanoBRET Abs IC50), 30200 nM. Further, in “CHI Log D procedure”, the chromatographic logD was 2.08. In addition, the Solubility in “Solubility in PBS” (Solubility (uM)) is 34 µM (≈ 67.6 µg/mL).

As usually defined, the chromatographic logD is a lipophilicity value derived from retention on a column. The term Solubility denotes the dissolved amount per volume that the medium holds. Read a high Solubility as a readily soluble substance.

(Values after patent US20240116985A1, “STAPLED PEPTIDES AND METHODS THEREOF” (priority 2020, published 2024).)
